{"source": "patent US11918550B2", "about": "“Sensitization of cancer cells to differentiation therapy with mitochondrial uncoupler niclosamide ethanolamine” (The Board of Trustees of the Leland Stanford Junior …, priority 2020, dated 2024)", "key": {"SK-N-BE(2) cells [1]": {"system": "SK-N-BE(2) cells", "experiment": "Proliferation after hypoxia pretreatment and replating", "format": "cell-based", "details": "1 μM NEN under hypoxia 4 days, replated under normoxia, counted after 5 days", "description": "Cell proliferation and clonogenic assay. 2×10^4 cells were seeded in 12 well-plate and allowed to attached overnight. Then the cells were treated with various conditions as indicated for 48 h or 96 h (n=3). After treatment, cells were counted using hemocytometer."}, "[2]": {"system": "RA-resistant neuroblastoma cells", "experiment": "Cell proliferation (cell counting), NEN with RA", "format": "cell-based", "details": "NEN combined with RA, 3 days", "description": "Cell proliferation and clonogenic assay. 2×10^4 cells were seeded in 12 well-plate and allowed to attached overnight. […] After treatment, cells were counted using hemocytometer."}, "SK-N-BE(2) cells [3]": {"system": "SK-N-BE(2) cells", "experiment": "Western blot of RA signaling proteins", "format": "cell-based", "details": "24 hrs", "description": "Protein extraction and immunoblot. Cells were washed with ice-cold PBS buffer (Invitrogen, 20012050) and lysed with harvest buffer (10 mM Hepes pH 7.9, 50 mM NaCl, 500 mM sucrose, 0.1 mM EDTA and 0.5% Trition X-100) supplemented with 1% Halt inhibitors (Thermo Scientific™, 78443) for 10 minutes. Cell lysate was centrifuged at 3000 rpm for 3 min at 4° C. The supernatant containing cytosolic proteins was transferred to a different tube. The pellet containing nuclear proteins was dissolved with nuclear lysis buffer (10 mM Hepes pH 7.9, 0.5M NaCl, 0.1 mM EDTA, 0.1 mM EGTA and 0.1% NP40) supplemented with 1% Halt inhibitors (Thermo Scientific™, 78443) for 5 minutes at 4° C. Then the solution was sonicated at 4° C. for 6 cycles (1 cycle=30 s sonication and 30 s cooldown with “High” energy intensity) using a Bioruptor® Plus sonication (Diagenode, UCD-300). After sonication, the solution was centrifuged at 15,000 rpm for 10 minutes. The supernatant was kept as nuclear extraction. Protein concentration was determined by BCA assay (Thermo Scientific, 23227). 5 μg nuclear proteins or 7.5 μg cytosolic proteins were boiled in loading buffer with reducing reagents (Invitrogen, NuPAGE™ LDS Sample Buffer (4X), NP0007), then separated with SDS-PAGE (Nupage™ 4-12% Bis-Tris Protein Gels, 1.0 mm, Invitrogen™, NP0322BOX). Protein was transferred onto a nitrocellulose membrane (Thermo Scientific™, 88018). After blocking in 5% non-fat milk for 30 minutes at room temperature (RT), the primary antibody was added for incubation overnight at 4° C. After washing with TBST (CST, #9997, 1:10 diluted by deionized water) for 3 times, HRP-conjugated secondary antibodies were applied. Signals were detected with an ECL kit (Thermo Scientific™, 34577) by using BioRad Universal Hood II."}, "[4]": {"experiment": "Plasma and tissue NEN levels under dietary NEN supplementation (LC/MS)", "format": "in vivo", "details": "mice, diet that contains 2000 ppm NEN", "description": "(§1) Metabolic analysis. For the metabolomics and isotope tracing analysis in vitro, cells were washed with cold PBS, lysed in 80% Ultra LC-MS acetonitrile on ice for 15 minutes, centrifuged at 20,000 g for 10 minutes at 4° C., and supernatant was subjected to mass spectrometry analysis. For the metabolomics analysis in vivo, 10-20 mg tissue were cut off on ice, rinsed if necessary to remove blood, and place in a 2 ml round-bottom cryovial. The tissues were homogenized by 3 times 10 s on/off bursts homogenization in 1 ml 80% methanol on dry ice. Transfer the homogenate to an Eppendorf tube and keep on liquid nitrogen while processing the remaining samples. Incubated all the samples in −80° C. for 30 minutes. After incubation, vortexed the samples for 5 seconds. Then centrifuged the samples at 20,000 g for 10 minutes at 4° C., and supernatant was subjected to mass spectrometry analysis. Resuspend the remaining cellular pellet in 100 ul protein lysis buffer and determine the protein concentration. Then calculate the total protein content per sample.\nLiquid chromatography was performed using an Agilent 1290 Infinity LC system (Agilent, Santa Clara, US) coupled to a Q-TOF 6545 mass spectrometer (Agilent, Santa Clara, US). […]\nMouse orthotopic neuroblastoma model. […] Tumor formation was monitored by non-invasive ultrasound measurements, and the animals euthanized when the tumor volume exceeded 1,000 mm^3."}, "NB16 cells": {"system": "NB16 cells", "experiment": "U-13C-glutamine isotope tracing (LC/MS)", "format": "cell-based", "description": "as §1\nLiquid chromatography was performed using an Agilent 1290 Infinity LC system (Agilent, Santa Clara, US) coupled to a Q-TOF 6545 mass spectrometer (Agilent, Santa Clara, US). A hydrophilic interaction chromatography method (HILIC) with a BEH amide column (100×2.1 mm i.d., 1.7 μm; Waters) was used for compound separation at 35° C. with a flow rate of 0.3 ml/minutes. The mobile phase A consisted of 25 mM ammonium acetate and 25 mM ammonium hydroxide in water and mobile phase B was acetonitrile. The gradient elution was 0-1 minute, 85% B; 1-12 minutes, 85% B→65% B; 12-12.2 minutes, 65% B→40% B; 12.2-15 minutes, 40% B. After the gradient, the column was re-equilibrated at 85% B for 5 minutes. The overall runtime was 20 minutes, and the injection volume was 5 μL. Agilent Q-TOF was operated in negative mode and the relevant parameters were as listed: ion spray voltage, 3500 V; nozzle voltage, 1000 V; fragmentor voltage, 125 V; drying gas flow, 11 L/minutes; capillary temperature, 325° C., drying gas temperature, 350° C.; and nebulizer pressure, 40 psi. A full scan range was set at 50 to 1600 (m/z). The reference mass was 119.0363 and 980.0164. The acquisition rate was 2 spectra/s. Targeted analysis, isotopologues extraction and natural isotope abundance correction were performed by Agilent Profinder B.10.00 (Agilent Technologies).\nStable isotope tracing analysis. […] Then the culture medium was changed to DMEM/F-12, no glutamine (Gibco, 21331020) with 4 mM U-^13C5-glutamine (Cambridge Isotope Laboratories, CLM-1822-H) and 10% dialyzed FBS (Gibco, 26400044) under same treatment condition as above for 2 h. […] Then changed the medium to DMEM/F-12, no glutamine (Gibco, 21331020) with 4 mM 1-^13C-glutamine (Cambridge Isotope Laboratories, CLM-CLM-3612-PK) and 10% dialyzed FBS (Gibco, 26400044) for 2 h with same treatment under normoxia or hypoxia for 2 h."}, "[5]": {"details": "NB16, 1 μM NEN 3 h pretreatment then 2 h label"}}, "data": [{"smiles": "O=C(Nc1ccc([N+](=O)[O-])cc1Cl)c1cc(Cl)ccc1O", "note": "[NEN, 5-chloro-N-(2-chloro-4-nitrophenyl)-2-hydroxybenzamide compound with 2-aminoethanol (1:1)]", "values": [{"measurement": "gain of proliferation advantage from hypoxia pretreatment", "setting": "SK-N-BE(2) cells [1]", "value": "blocked"}, {"measurement": "RA-dependent proliferation arrest effect", "setting": "[2]", "value": "enhanced"}, {"measurement": "protein level of RARγ", "setting": "SK-N-BE(2) cells [3]; 1 μM NEN alone", "value": "increased"}, {"measurement": "protein level of RARγ", "setting": "SK-N-BE(2) cells [3]; 1 μM NEN combined with 1 μM RA", "value": "further upregulated"}, {"measurement": "NEN accumulation in plasma", "setting": "[4]", "value": "1 to 3", "unit": "µM"}, {"measurement": "m+4 aspartate", "setting": "NB16 cells; [5]", "value": "increased"}, {"measurement": "m+4 succinate", "setting": "NB16 cells; [5]", "value": "increased"}, {"measurement": "m+5 2-HG labelling", "setting": "NB16 cells; [5]", "value": "no significant reduction"}, {"measurement": "m+5 and m+3 labeling of α-KG from glutamine", "setting": "NB16 cells; [5]", "value": "increased"}, {"measurement": "reductive carboxylation flux (labelling fraction of m+5 citrate, m+3 fumarate, m+3 malate)", "setting": "NB16 cells; NB16, U-13C-glutamine, 1 μM NEN, normoxia", "value": "significantly inhibited"}]}]}
